Assay results taken from ChEMBL document CHEMBL2331299, “Basic N-interlinked imipramines show apoptotic activity against malignant cells including Burkitt's lymphoma” (Bioorg Med Chem Lett, 2013).
Activity calls are given as the source filed them. The calls are words filed in the database; no cut-off is given here.

Experiments:
MUTU-I [1] = experiment: Induction of apoptosis in human MUTU-I cells assessed as decrease in cells at G2/M phase measured at 2.5 uM after 24 hrs by propidium iodide assay; type: functional, cell-based
[2] = Reduction in cell viability of human MUTU-I cells after 24 hrs by Alamar blue viability assay; type: functional, cell-based
HeLa [3] = experiment: Reduction in cell viability of human HeLa cells after 24 hrs by Alamar blue viability assay; type: functional, cell-based
HeLa [4] = experiment: Induction of apoptosis in human HeLa cells assessed as decrease in cells at G2/M phase measured at 2.5 uM after 24 hrs by propidium iodide assay; type: functional, cell-based
DG-75 [5] = experiment: Reduction in cell viability of human DG75 cells after 24 hrs by Alamar blue viability assay; type: functional, cell-based; conditions: DG-75, 24 h
DG-75 [6] = experiment: Induction of apoptosis in human DG75 cells assessed as decrease in cells at G2/M phase measured at 2.5 uM after 24 hrs by propidium iodide assay; type: functional, cell-based
DG-75 [7] = experiment: Induction of apoptosis in human DG75 cells assessed as increase in caspase 3/7 activation by luminescence plate reader; type: functional, cell-based
DG-75 [8] = experiment: Induction of apoptosis in human DG75 cells assessed as cell death at 2.5 uM in presence of NAC ROS inhibitor; type: functional, cell-based
HeLa [9] = experiment: Induction of apoptosis in human HeLa cells assessed as cell death at 2.5 uM in presence of NAC ROS inhibitor; type: functional, cell-based
HeLa [10] = experiment: Induction of apoptosis in human HeLa cells assessed as increase in intracellular cysteine proteases; type: functional, cell-based
MUTU-I [11] = experiment: Induction of apoptosis in human MUTU-I cells assessed as increase in caspase 3/7 activation by luminescence plate reader; type: functional, cell-based
DG-75 [12] = experiment: Induction of apoptosis in human DG75 cells assessed as cell death at 2.5 uM after 24 hrs by flow cytometry (reference value: 0.8 +/- 0.25%); type: functional
[13] = biological target: Sodium-dependent serotonin transporter (Homo sapiens, UniProt P31645); experiment: Inhibition of human SERT expressed in HEK293-MSR cells by 5-HT uptake assay; type: cell-based
Chain of Sodium-dependent serotonin transporter (P31645 whole entry): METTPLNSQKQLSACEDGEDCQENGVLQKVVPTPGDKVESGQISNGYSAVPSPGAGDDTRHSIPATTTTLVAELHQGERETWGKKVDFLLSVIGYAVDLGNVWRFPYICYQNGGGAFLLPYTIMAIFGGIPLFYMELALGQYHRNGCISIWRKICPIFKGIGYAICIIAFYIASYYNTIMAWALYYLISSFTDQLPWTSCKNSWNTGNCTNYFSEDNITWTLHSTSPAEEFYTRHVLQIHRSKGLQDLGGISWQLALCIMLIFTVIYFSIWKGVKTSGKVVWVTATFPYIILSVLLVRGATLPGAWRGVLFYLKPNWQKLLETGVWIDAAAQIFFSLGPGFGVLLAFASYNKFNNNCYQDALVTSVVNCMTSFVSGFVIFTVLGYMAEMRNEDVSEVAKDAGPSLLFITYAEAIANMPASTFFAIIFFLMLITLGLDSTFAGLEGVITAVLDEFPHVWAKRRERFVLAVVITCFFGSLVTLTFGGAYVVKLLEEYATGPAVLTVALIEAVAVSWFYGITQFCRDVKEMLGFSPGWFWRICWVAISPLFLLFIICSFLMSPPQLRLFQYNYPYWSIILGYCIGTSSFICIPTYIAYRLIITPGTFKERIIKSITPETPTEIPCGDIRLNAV

HeLa [14] = experiment: Induction of apoptosis in human HeLa cells assessed as cell death at 2.5 uM after 8 hrs by flow cytometry; type: functional, cell-based
DG-75 [15] = experiment: Induction of apoptosis in human DG75 cells assessed as cell death at 2.5 uM measured after 24 hrs by flow cytometry; type: functional, cell-based
HeLa [16] = experiment: Induction of apoptosis in human HeLa cells assessed as PARP cleavage by Western blotting analysis; type: functional, cell-based
MUTU-I [17] = experiment: Induction of apoptosis in human MUTU-I cells assessed as PARP cleavage by Western blotting analysis; type: functional, cell-based
HeLa [18] = experiment: Induction of apoptosis in human HeLa cells assessed as cell death at 2.5 uM after 24 hrs by flow cytometry (reference value: 7 +/- 1.9%); type: functional
MUTU-I [19] = experiment: Induction of apoptosis in human MUTU-I cells assessed as increase in intracellular cysteine proteases; type: functional, cell-based
MUTU-I [20] = experiment: Induction of apoptosis in human MUTU-I cells assessed as cell death at 2.5 uM in presence of NAC ROS inhibitor; type: functional, cell-based
[21] = (§1) Induction of apoptosis in human MUTU-I cells assessed as cell death at 2.5 uM after 24 hrs by flow cytometry (reference value: 3.7 +/- 0.4%); type: functional
DG-75 [22] = experiment: Induction of apoptosis in human DG75 cells assessed as PARP cleavage by Western blotting analysis; type: functional, cell-based
MUTU-I [23] = experiment: Induction of apoptosis in human MUTU-I cells assessed as cell death at 2.5 uM after 2 hrs by flow cytometry; type: functional, cell-based
HeLa [24] = experiment: Induction of apoptosis in human HeLa cells assessed as increase in caspase 3/7 activation by luminescence plate reader; type: functional, cell-based
DG-75 [25] = experiment: Induction of apoptosis in human DG75 cells assessed as increase in cells at G2/M phase measured at 2.5 uM after 24 hrs by propidium iodide assay; type: functional, cell-based
MUTU-I [26] = experiment: as §1; type: functional

SMILES	Activity (MUTU-I [1])	IC50 [2]	IC50 (HeLa [3])	Activity (HeLa [4])	IC50 (DG-75 [5])	Activity (DG-75 [6])	Activity (DG-75 [7])	Activity (DG-75 [8])	Activity (HeLa [9])	Activity (HeLa [10])	Activity (MUTU-I [11])	Activity (DG-75 [12])	IC50 [13]	Activity (HeLa [14])	Activity (DG-75 [15])	Activity (HeLa [16])	Activity (MUTU-I [17])	Activity (HeLa [18])	Activity (MUTU-I [19])	Activity (MUTU-I [20])	other results
CNCCCN1c2ccccc2CCc2ccccc21 [DESIPRAMINE]	inactive	7.94 µM	17.8 µM	inactive	39.8 µM	inactive	–	–	–	–	–	–	–	–	–	–	–	–	–	–	–
CN(CCCN1c2ccccc2CCc2ccccc21)CCOCCOCCN(C)CCCN1c2ccccc2CCc2ccccc21	Active	0.62 µM	1.41 µM	Active	1.51 µM	Active	inactive	Active	Active	Active	Active	40.9%	4.8 µM	Active	Active	Active	Active	44.4%	Active	Active	Activity [21]: 56.2%; Activity (DG-75 [22]): inactive; Activity (MUTU-I [23]): Active; Activity (HeLa [24]): Active
CN(C)CCCN1c2ccccc2CCc2ccccc21 [IMIPRAMINE]	inactive	14.1 µM	40.7 µM	inactive	> 50 µM	inactive	–	–	–	–	–	–	–	–	–	–	–	–	–	–	–
CN(CCCN1c2ccccc2CCc2ccccc21)CCOCCOCCOCCN(C)CCCN1c2ccccc2CCc2ccccc21	Active	1.15 µM	1.58 µM	Active	1.91 µM	Active	inactive	Active	Active	Active	Active	54.6%	5.5 µM	Active	Active	Active	Active	46%	Active	Active	Activity [21]: 46.3%; Activity (DG-75 [22]): inactive; Activity (MUTU-I [23]): Active; Activity (HeLa [24]): Active
CN(CCCN1c2ccccc2CCc2ccccc21)C(=O)COCCOCC(=O)N(C)CCCN1c2ccccc2CCc2ccccc21	inactive	5.75 µM	22.9 µM	inactive	18.6 µM	inactive	–	–	–	–	–	–	46 µM	–	–	–	–	–	–	–	–
CC(=O)O[C@H]1C(=O)[C@@]2(C)[C@H]([C@H](OC(=O)c3ccccc3)[C@]3(O)C[C@H](OC(=O)[C@H](O)[C@@H](NC(=O)c4ccccc4)c4ccccc4)C(C)=C1C3(C)C)[C@]1(OC(C)=O)CO[C@@H]1C[C@@H]2O	–	–	–	–	–	–	–	–	–	–	–	inactive	–	–	–	–	–	Active	–	–	Activity (DG-75 [25]): Active; Activity (MUTU-I [26]): Active
CN(CCCN1c2ccccc2CCc2ccccc21)CCOCCN(C)CCCN1c2ccccc2CCc2ccccc21	Active	1.05 µM	1.74 µM	Active	1.89 µM	Active	inactive	Active	Active	Active	Active	22.8%	6 µM	Active	Active	Active	Active	61.7%	Active	Active	Activity [21]: 66.6%; Activity (DG-75 [22]): inactive; Activity (MUTU-I [23]): Active; Activity (HeLa [24]): Active
